Results: US9945853B2, “Extracellular mitochondrial components for detecting inflammatory reactions and conditions” (UNIVERSITE LAVAL, priority 2013, dated 2018)

What was measured:
platelets = assay: Platelet stimulation and release of freeMitos, mitoMPs and MPs (hs-FCM); format: cell-based, human; conditions: platelets stimulated 4 hours at room temperature, vs supernatant from resting platelets, n=4
Description: (§1) A forward scatter (FSC) coupled to a photomultiplier tube (PMT) “small particles option” (FSC-PMT) (rather than the usual diode) with a 488-nm solid state, 100-mW output blue laser (rather than the conventional 20 mW), a 633-nm HeNe, 20-mW output red laser, and a 405-nm solid state diode, 50-mW output violet laser were mounted on the BD FACS Canto II Special Order Research Product used for all our studies (BD Biosciences). The chosen parameters were optimal to detect particles from 100 to 3 500 nm simultaneously on the FSC-PMT.
(§2) Platelets were labeled with MitoTracker Deep Red™ and PKH67 Green Fluorescent Cell Linker as described above. Platelets were washed and then were left nonactivated or activated using heat-aggregated immunoglobulin (Ig)G (HA-IgG), 1 mg/mL; thrombin, 0.5 U/mL; collagen, 5 μg/mL; for 4 hours at room temperature. Platelets ([…]) were then diluted into […] phosphate-buffered saline (PBS) and analyzed by flow cytometry. For extracellular mitochondria release experiments, platelets were treated with cytochalasin B ([…]; Sigma-Aldrich), cytochalasin D ([…]; Sigma-Aldrich), cytochalasin E ([…]; Cayman Chemical), latrunculin A ([…]; Cayman Chemical), or nocodazole ([…]; Sigma-Aldrich). To process the data quantitatively, 100 000 polystyrene microspheres ([…] diameter; Polysciences) were added to each tube, and 1000 microspheres were acquired.

human neutrophils [1] = assay: NET quantification; format: cell-based
Experimental: Activated human neutrophils (5×10^6 cells/ml) were incubated in the presence of labeled mitochondria (5×10^5 mitochondria/ml, MitoTracker® Deep Red, 100 nm) and sPLA2-IIA (0.1 μg/ml) or diluent (PBS) for 2 h at 37° C. Cells were then fixed with 2% PFA and DNA staining was performed with Hoestch 33342 (1 μg/ml, Invitrogen). Cells were cytospinned on a slide at 500 RPM for 3 min. NET formation (%) was determined by the following equation: (NETs/PMN counted)*100. Preliminary experiments confirmed that mtDNA is readily distinguished from neutrophils NETs.

[2] = tested on: thrombin-activated platelets; assay: Extracellular mitochondria release from thrombin-activated platelets with cytoskeleton inhibitors (hs-FCM); format: cell-based, human; conditions: addition of actin or tubulin polymerization inhibitors, n=4
Description: as §1, §2

human neutrophils [3] = assay: Stimulation of neutrophils for leukotriene generation (5-LO products, HPLC); format: cell-based; conditions: human neutrophils with extracellular mitochondria and sPLA2-IIA; pyrrophenone 100 nM
Experimental: Human neutrophils were primed and stimulated for leukotriene biosynthesis as previously described (Cloutier et al. 2013, Flamand et al. 2006). To evaluate sPLA2-IIA mediated release of arachidonic acid, cPLA2α inhibitor pyrrophenone (100 nM) was added 5 min before stimulation. Stimulation was initiated by the addition of 5 μl of pre-treated mitochondria, or control, to prime neutrophils. The reaction was stopped by the addition of 500 μl of cold MeOH:CH3CN (1:1) containing 12.5 ng of prostaglandin B2 as internal standard. Samples were then processed and analyzed by reversed-phase high performance liquid chromatography using on-line extraction as previously described (Borgeat et al. 1990).

mitochondria [4] = assay: sPLA2-IIA binding to mitochondria (flow cytometry, anti-TOM22 co-elution and immunoblot); set-up: species or system mouse; conditions: 30 min on ice, 5 mM CaCl2
Experimental: Mitochondria (10^6) from mouse liver were labeled with 100 nM of MitoTracker® Deep Red and incubated with 10 ng of sPLA2-IIA Alexa Fluor 488 (final volume 10 μl) in HBSS with 5 mM of CaCl2 for 30 min on ice. Samples were diluted and the presence of sPLA2-IIA Alexa Fluor 488 on fluorescent mitochondria was analyzed by flow cytometry.
Interaction between mitochondria and sPLA2-IIA was also assessed by immunolabeling and co-elution. Unstained mouse liver mitochondria (10^7) in HBSS with 5 mM CaCl2 were incubated with 250 ng of sPLA2-IIA (final volume 100 μl) for 30 min on ice. Anti-TOM22 microbeads labeling was then performed as described above and processed on a magnet for mitochondria isolation. Mitochondria were then pelleted and lysed in 1× lysis buffer. Samples were electrophoresed, transferred onto membranes and incubated in 0.2% milk/TBS-Tween solution containing rabbit anti-sPLA2-IIA antibody (1/1000, Cayman Chemical) for 48 h at 4° C. The membrane was washed, treated with Peroxidase-AffiniPure anti-rabbit-IgG (Jackson ImmunoResearch) and reactive proteins were visualized by chemiluminescence (Perkin Elmer).

mitochondrial membranes = assay: Mass spectrometry of lysophospholipids and fatty acids released from mitochondrial membranes by sPLA2-IIA; format: biochemical, mouse; conditions: 0.1 and 1 μg/ml sPLA2-IIA, 37° C., 0.5 and 6 h
Experimental: Mitochondria were incubated in the presence of 0.1 μg/ml and 1 μg/ml of human recombinant sPLA2-IIA at 37° C. for 0.5 and 6 h. Mitochondria were also incubated in the absence of sPLA2-IIA to determine the content of basal free fatty acid. Following incubation, the reaction was stopped with the addition of 20 mM of EGTA. Lysophospholipid analysis by mass spectrometry was carried out as described (Bollinger et al. 2010). Samples of sPLA2-IIA-treated mitochondria (200 μl) was mixed with 800 μl of chloroform/methanol (2/1) followed by the addition of 15 μl of internal standard mixture (Bollinger et al. 2010 B). Samples were extracted as described and analyzed by combined liquid chromatography/tandem mass spectrometry (Bollinger et al. 2010). Fatty acids were analyzed by conversion to their AMPP amide derivatives and then analyzed by combined liquid chromatography/tandem mass spectrometry.

mitochondria [5] = assay: Scanning electron microscopy of mitochondria incubated with sPLA2-IIA; set-up: species or system mouse; conditions: scanning electron micrographs
Experimental: (§3) Samples were fixed with 2.5% glutaraldehyde for at least 24 h then processed for standard dehydration. Briefly, samples were first washed (3×10 min) with sodium cacodylate buffer (0.1 M, pH 7.3) then fixed with osmium tetroxide (1% in sodium cacodylate buffer) for 90 min. Samples were washed again (3×10 min) in sodium cacodylate buffer and subsequently processed for alcohol dehydration steps (50, 70, 95 and 100% EtOH, 10 min each steps). Samples were then dipped in 100% EtOH for 40 and 10 min, and air-dried overnight. Samples were then coated with palladium and observed with a JEOL 6360LV scanning electron microscope (Tokyo, Japan).

mitochondria [6] = assay: Mitochondrial DNA release after incubation with sPLA2-IIA (Sytox Green); format: biochemical, mouse; conditions: 0.2 mg/mL, 30 minutes at 37° C., n=6
Experimental: Mitochondria were seeded at 5×10^8 mitochondria/mL (Tyrode Buffer, pH 7.4, +5 mM CaCl2) in a flat bottom well plate (Costar, Corning). Human recombinant sPLA2-IIA (5 μg/ml) or diluent (PBS) was added and samples were then incubated for 30 min at 37° C. Nucleic acid stain Sytox® Green (2.5 μM, Invitrogen) was added to the mix and incubated for 10 min at room temperature. Fluorescence was obtained with a Tecan apparatus. To calculate the percentage of mitochondrial DNA released in the milieu, Triton X-100 (0.1% PBS) lysis of an equivalent amount of mitochondria (5×10^8 mitochondria/ml) was performed, to determine the total amount of mitochondrial DNA present per well.

[7] = tested on: freshly isolated human neutrophil; assay: Scanning electron microscopy of human neutrophils with mitochondria and sPLA2-IIA; format: cell-based; conditions: mitochondria with human neutrophils, 30-minute incubation with sPLA2-IIA; n=3
Experimental: as §3

C57BL/6N mice = assay: Air pouch model, cytokine production; format: in vivo, mouse; conditions: injected into the air pouch of C57BL/6N mice, 4 hours; n=7
Experimental: Briefly, sterile air was subcutaneous injected on days 0 and 3. Tumor necrosis factor-α (50 ng) was injected into the pouch on day 6. On day 7, mitochondrial membrane hydrolysis products ([…] of 5×10^8 mitochondria treated with sPLA2-IIA), diluent (PBS), sPLA2-IIA, or mitochondria alone were injected in the air pouch. After 4 hours, the air pouch was washed with 1.2 mL PBS. Cytokines were quantified using the BD Cytometric Bead Array System (CBA) (BD Biosciences) by flow cytometry on a BD FACS Canto II and analyzed using FCAP Array Software v3.0.

Molecule: CCCCCCCCCCCCCC(=O)O[C@@H]1[C@@H](C)[C@@]2(O)[C@@H](C=C(CO)C[C@]3(O)C(=O)C(C)=C[C@@H]23)[C@@H]2C(C)(C)[C@]12OC(C)=O [PMA, phorbol 12-myristate 13-acetate]
- release of extracellular freeMitos, mitoMPs and MPs (platelets): trigger the release

Molecule: CCCCC/C=C\C/C=C\C/C=C\C/C=C\CCCC(=O)O [arachidonic acid]
- inducing NETosis (hydrolytic products derived from sPLA2-IIA activity) (human neutrophils [1]; human neutrophils): highly potent

Molecule: C=C1[C@@H](C)[C@H]2[C@H](Cc3ccccc3)NC(=O)[C@]23OC(=O)/C=C/[C@H](O)CCC[C@@H](C)C/C=C/[C@H]3[C@@H]1O [cytochalasin B]
- Mitochondrial release (freeMito, mitoMPs, MPs) from thrombin-activated platelets [2]: significantly reduced

Molecule: C=C1[C@@H](C)[C@H]2[C@H](Cc3ccccc3)NC(=O)[C@]23[C@H](OC(C)=O)/C=C/[C@@](C)(O)C(=O)[C@@H](C)C/C=C/[C@H]3[C@@H]1O [cytochalasin D]
- Mitochondrial release (freeMito, mitoMPs, MPs) from thrombin-activated platelets [2]: significantly reduced

Molecule: C[C@H]1C/C=C/[C@H]2[C@@H]3O[C@]3(C)[C@@H](C)[C@H]3[C@H](Cc4ccccc4)NC(=O)[C@]32OC(=O)O/C=C/[C@@](C)(O)C1=O [cytochalasin E]
- Mitochondrial release (freeMito, mitoMPs, MPs) from thrombin-activated platelets [2]: significantly reduced

Molecule: C/C1=C/C(=O)O[C@@H]2C[C@@H](CC[C@H](C)/C=C\C=C\CC1)O[C@@](O)([C@@H]1CSC(=O)N1)C2 [latrunculin A]
- Mitochondrial release (freeMito, mitoMPs, MPs) from thrombin-activated platelets [2]: significantly reduced

Molecule: O=C1NC(=O)/C(=C/c2ccc(C(=O)NC[C@@H]3C[C@@H](SC(c4ccccc4)(c4ccccc4)c4ccccc4)CN3C(=O)c3ccccc3C(=O)c3ccc(F)cc3F)cc2)S1 [pyrrophenone]
- LTB4 production (5-LO products) by neutrophils (human neutrophils [3]): takes place even in presence

Molecule: collagen
- release of extracellular freeMitos, mitoMPs and MPs (platelets): trigger the release

Molecule: thrombin
- release of extracellular freeMitos, mitoMPs and MPs (platelets): trigger the release

B1: sPLA2-IIA: human recombinant secreted phospholipase A2 group IIA (protein, UniProt P14555 21-144, looked up)
Phospholipase A2, membrane …: NLVNFHRMIKLTTGKEAALSYGFYGCHCGVGGRGSPKDATDRCCVTHDCCYKRLEKRGCGTKFLSYKFSNSGSRITCAKQDSCRSQLCECDKAAATCFARNKTTYNKKYQYYSNKHCRGSTPRC
- LTB4 production (5-LO products) by neutrophils (human neutrophils [3]): copious amounts
- binding of sPLA2-IIA to mitochondria (mitochondria [4]): binds mitochondria
- release of lysophospholipids and free fatty acids from mitochondria (mitochondrial membranes): release of various lysophospholipids and free fatty acids
- mitochondrial structural integrity (mitochondria [5]): severely affects mitochondrial structural integrity
- mtDNA extrusion (mitochondria [6]): amplified
- neutrophil structural change [7]: 29.2±2.11%
- NET formation by mitochondria (human neutrophils [1]; human neutrophils with mitochondria, sPLA2-IIA 0.1 μg/ml, 2 h at 37° C.): significantly enhances
- production of IL-1b and IL-6 (C57BL/6N mice): modest cytokine production
